# Measurements from patent US20080167282A1, “Use of Inhibitors of Steroid Activity for the Treatment of Substance Related Disorders” (priority 2005, published 2008).
# Assay: Study on the cocaine addiction: case report of a patient treated for hirsutism
# Assay type: in vivo, human
# Conditions: cocaine user; 50 mg 1 cp daily; after 6 months of therapy (treatment lasted approximately 9 months)
# Protocol: In the course of the follow up transaminases and hormones were assayed.
compound,measurement,value
CC(=O)O[C@]1(C(C)=O)CC[C@H]2[C@@H]3C=C(Cl)C4=CC(=O)[C@@H]5C[C@@H]5[C@]4(C)[C@H]3CC[C@@]21C [cyproterone acetate],cocaine use status during follow up,drug free
